The source of these data is patent publication US5783568A, “Methods for treating cancer and other cell proliferative diseases” (Sugen, Inc., priority 1994, dated 1998).

Entries after “also recorded” stand apart in the source; their conditions may differ.

One may read the Kd as a measure of binding affinity in units of concentration. A lower Kd goes with a tighter complex.

Experiment [1] deals with FGFR1 (flg). As to the kind of experiment: FGFR1 (flg) expressed in the two CHO cell lines. Format: cell-based.
The target in experiment [2] is sFGFR (soluble extracellular domain of FGFR2 (bek)). The experiment is described as follows: Isothermal titration calorimetry, aFGF binding to sFGFR. On the set-up: species or system human. To be noted: ITC. From the text:
A plasmid encoding the extracellular, ligand-binding domain of human FGFR2 (residues 1-355) was constructed using standard oligonucleotide-directed mutagenesis (Amersham) to introduce a translational termination codon immediately prior to the beginning of the single transmembrane domain of the receptor (Dionne et al., 1990). BamHI and SacII restriction sites were introduced 3' to the new termination codon. An XbaI-SacII fragment was isolated from the replicative form (RF) of this M13 mutagenesis product, filled in using T4 DNA polymerase (Boehringer-Mannheim) and inserted into the SmaI site of the expression vector pCVN (Dionne et al., 1990). This expression vector, which contains both the neomycin resistance and the dihydrofolate reductase genes for selection and amplification, was transfected into CHO cells following published procedures. Wigler et al., 1979, Cell 16:777-785.
The binding of aFGF to sFGFR was studied using the technique of isothermal titration calorimetry (ITC). In this technique the heat liberated (or absorbed) upon binding is monitored as small aliquots of ligand are added sequentially to a solution of the receptor at known concentration, which is maintained at constant temperature. […]

In experiment [3] the test system is sFGFR (soluble extracellular domain of FGFR2). The experiment is described as follows: Binding of sFGFR to a heparin-sepharose column. On the set-up: species or system human.
The target of experiment [4] is T1, aFGF (Homo sapiens, UniProt P05230).
T1 construct: made in house; host or cells: E. coli
To be noted: Mach et al., 1993; cited from earlier work.

Experiment [5] concerns FGFR1 extracellular domain. To be noted: Kan et al., 1993; cited from earlier work.
In experiment [6] the target is T1, aFGF. The experiment is described as follows: Isothermal titration calorimetry, binding to aFGF. To be noted: from ITC stoichiometry. (In general: ITC needs no label: the signal is the heat of the interaction.)
Experiment [7] has as its system vascular endothelial cells. To be noted: cited from earlier work.
In experiment [8] the test system is FGFR2 (bek). The experiment is described as follows: Tyrosine phosphorylation of FGFR2 in mutant (HSPG-deficient) CHO-pgsD-677 cells. Format: cell-based, human. The note with it: 0.1 nM aFGF, 50 nM heparin, 5 min at 37° C. Here is the method:
Cells were lysed and the receptor was immunoprecipitated with anti-FGFR2 antibodies. Samples were then analyzed by SDS-PAGE, transferred to nitrocellulose membranes, and tyrosine-phosphorylated proteins were detected by immunoblotting with anti-phosphotyrosine antibodies.
Wild-type CHO cells (CHO-K1), as well as heparin sulfate-deficient mutant cells (CHO-pgsD-677) which were kindly provided by Prof. J. Esko (Esko, 1991), were cultured in F-12 medium containing 7.5% FBS, 1% Ampicillin/Streptomycin and 1% glutamine. Both CHO cell lines were co-transfected with the wild-type human FGFR2 (bek) DNA in the expression vector pMJ30 (Dionne et al., 1990) (40 μg/10 cm dish) and the pSVneo resistant gene (0.5 mg/10 cm dish), using the calcium phosphate method (Chen and Okayama, 1987). Geneticin (1 mg/ml) resistant clones were screened for expression of the receptor by immunoprecipitation and immunoblotting analysis using anti-FGFR2 antibodies.
Wild-type and mutant CHO cells were starved overnight in F-12 medium containing 0.5% FBS, and stimulated with either 0.1 nM aFGF, 50 nM heparin, or both, for 5 min at 37° C. Cells were lysed, immunoprecipitated with anti-FGFR2 antibodies and analyzed by immunoblotting with anti-phosphotyrosine (anti-PTyr) antibodies.

The test system of experiment [9] is sFGFR (soluble extracellular domain of FGFR2). The experiment is described as follows: Isothermal titration calorimetry, heparin binding to sFGFR. On the set-up: species or system human. To be noted: ITC.

T1 sequence (P05230 whole entry): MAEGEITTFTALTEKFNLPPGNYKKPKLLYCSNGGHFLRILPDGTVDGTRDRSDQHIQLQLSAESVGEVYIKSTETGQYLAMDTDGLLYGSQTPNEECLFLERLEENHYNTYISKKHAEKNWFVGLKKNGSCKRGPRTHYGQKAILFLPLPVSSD

As for “aFGF: aFGF was expressed in E. coli and purified by binding to a heparin-sepharose column”, the “dimerization and autophosphorylation with FGFR1 (flg)” value in experiment [1] was “Identical results”. The Kd in experiment [2] (single class of binding sites, mean ± SD of three experiments, no added heparin) was 528 ± 173 nM.

For the substance heparin, the “binding of sFGFR to heparin-sepharose column” value in [3] is listed as “could not be detected”. Further, the “binding to aFGF” value in [4] is “relatively high affinity, in a multivalent fashion”. In [5], the “binding to the extracellular domain of FGFR1” value is reported as “binds to the extracellular domain of FGFR1”. In addition, the “saccharide units of heparin per one bound aFGF” value in experiment [6] is recorded as 4-5 saccharide units. Moreover, the “mitogenic effect of aFGF on vascular endothelial cells” value in experiment [7] is reported as “potentiates the mitogenic effect of aFGF on vascular endothelial cells”. Moreover, the “FGFR2 autophosphorylation in mutant (heparin-deficient) CHO cells” value in experiment [8] is given as “required for significant levels of aFGF-induced FGFR2 autophosphorylation; also recorded: the addition of heparin is required for aFGF to activate FGFR”. For the same substance, the “effect of heparin on the aFGF/sFGFR binding parameters” value in [2] (sFGFR titrated into mixture of heparin and aFGF) was “no effect upon the binding parameters could be detected; also recorded: does not detectably affect the interaction; also recorded: does not influence the affinity of the aFGF/sFGFR interaction”. The “heparin binding to sFGFR” value in experiment [9] is given as “failed to detect an interaction with significant affinity; also recorded: could not be detected; also recorded: does not itself interact with sFGFR”.
